Patent US9163010B2, “Indolinone protein kinase inhibitors” (Beta Pharma, Inc., priority 2011, dated 2015)

Columns and labels:
VEGFR-1 (Flt-1) = VEGFR-1 (Flt-1) (Homo sapiens (Human), UniProt P17948); test: Enzymatic activity, VEGFR-1 inhibition in vitro; assay type: biochemical; conditions: read-out: Enzymatic Activities IC50 VEGFR-1 (Flt-1) or VGFR1 FLT1
VEGFR-2 KDR = VEGFR-2 KDR (Homo sapiens (Human), UniProt P35968); test: Enzymatic activity, VEGFR-2 inhibition in vitro; assay type: biochemical; conditions: read-out: Enzymatic Activities IC50 VEGFR-2 KDR or VGFR2 KDR
Sequence of VEGFR-2 KDR (P35968 20-1356): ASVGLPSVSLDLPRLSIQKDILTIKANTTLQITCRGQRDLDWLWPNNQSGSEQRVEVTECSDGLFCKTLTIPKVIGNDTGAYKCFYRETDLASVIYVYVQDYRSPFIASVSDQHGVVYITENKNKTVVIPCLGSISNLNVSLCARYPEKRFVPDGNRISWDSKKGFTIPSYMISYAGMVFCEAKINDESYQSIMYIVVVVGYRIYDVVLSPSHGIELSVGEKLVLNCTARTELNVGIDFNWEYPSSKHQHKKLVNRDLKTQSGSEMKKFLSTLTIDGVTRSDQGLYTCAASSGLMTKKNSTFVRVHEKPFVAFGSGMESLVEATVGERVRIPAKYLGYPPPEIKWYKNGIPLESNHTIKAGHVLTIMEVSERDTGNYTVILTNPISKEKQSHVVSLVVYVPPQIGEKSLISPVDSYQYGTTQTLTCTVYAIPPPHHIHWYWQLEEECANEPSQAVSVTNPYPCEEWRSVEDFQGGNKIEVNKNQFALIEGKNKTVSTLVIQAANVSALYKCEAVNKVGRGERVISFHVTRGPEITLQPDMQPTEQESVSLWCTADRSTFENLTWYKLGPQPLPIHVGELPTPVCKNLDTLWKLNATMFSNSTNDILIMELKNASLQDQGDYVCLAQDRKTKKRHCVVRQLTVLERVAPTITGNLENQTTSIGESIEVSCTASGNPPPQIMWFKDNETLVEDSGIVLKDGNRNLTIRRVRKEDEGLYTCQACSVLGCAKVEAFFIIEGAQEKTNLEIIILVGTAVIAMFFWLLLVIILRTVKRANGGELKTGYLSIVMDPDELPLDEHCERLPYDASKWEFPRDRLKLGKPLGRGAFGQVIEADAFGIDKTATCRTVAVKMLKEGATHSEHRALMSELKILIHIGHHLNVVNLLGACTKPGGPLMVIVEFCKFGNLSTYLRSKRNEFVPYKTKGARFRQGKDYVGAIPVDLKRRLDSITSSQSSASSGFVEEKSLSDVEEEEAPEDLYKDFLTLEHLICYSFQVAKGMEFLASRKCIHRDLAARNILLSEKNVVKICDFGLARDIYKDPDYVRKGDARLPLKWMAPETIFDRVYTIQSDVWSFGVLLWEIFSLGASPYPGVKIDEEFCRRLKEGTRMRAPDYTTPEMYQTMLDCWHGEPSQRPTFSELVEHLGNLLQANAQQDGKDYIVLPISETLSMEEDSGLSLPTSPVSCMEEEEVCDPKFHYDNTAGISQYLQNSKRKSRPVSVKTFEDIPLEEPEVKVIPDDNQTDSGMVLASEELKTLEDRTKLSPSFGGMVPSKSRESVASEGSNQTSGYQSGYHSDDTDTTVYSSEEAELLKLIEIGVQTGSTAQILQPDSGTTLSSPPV

VEGFR-3 (Flt-4) = VEGFR-3 (Flt-4) (Homo sapiens (Human), UniProt P35916); test: Enzymatic activity, VEGFR-3 inhibition in vitro; assay type: biochemical
Sequence of VEGFR-3 (Flt-4) (P35916 25-1363): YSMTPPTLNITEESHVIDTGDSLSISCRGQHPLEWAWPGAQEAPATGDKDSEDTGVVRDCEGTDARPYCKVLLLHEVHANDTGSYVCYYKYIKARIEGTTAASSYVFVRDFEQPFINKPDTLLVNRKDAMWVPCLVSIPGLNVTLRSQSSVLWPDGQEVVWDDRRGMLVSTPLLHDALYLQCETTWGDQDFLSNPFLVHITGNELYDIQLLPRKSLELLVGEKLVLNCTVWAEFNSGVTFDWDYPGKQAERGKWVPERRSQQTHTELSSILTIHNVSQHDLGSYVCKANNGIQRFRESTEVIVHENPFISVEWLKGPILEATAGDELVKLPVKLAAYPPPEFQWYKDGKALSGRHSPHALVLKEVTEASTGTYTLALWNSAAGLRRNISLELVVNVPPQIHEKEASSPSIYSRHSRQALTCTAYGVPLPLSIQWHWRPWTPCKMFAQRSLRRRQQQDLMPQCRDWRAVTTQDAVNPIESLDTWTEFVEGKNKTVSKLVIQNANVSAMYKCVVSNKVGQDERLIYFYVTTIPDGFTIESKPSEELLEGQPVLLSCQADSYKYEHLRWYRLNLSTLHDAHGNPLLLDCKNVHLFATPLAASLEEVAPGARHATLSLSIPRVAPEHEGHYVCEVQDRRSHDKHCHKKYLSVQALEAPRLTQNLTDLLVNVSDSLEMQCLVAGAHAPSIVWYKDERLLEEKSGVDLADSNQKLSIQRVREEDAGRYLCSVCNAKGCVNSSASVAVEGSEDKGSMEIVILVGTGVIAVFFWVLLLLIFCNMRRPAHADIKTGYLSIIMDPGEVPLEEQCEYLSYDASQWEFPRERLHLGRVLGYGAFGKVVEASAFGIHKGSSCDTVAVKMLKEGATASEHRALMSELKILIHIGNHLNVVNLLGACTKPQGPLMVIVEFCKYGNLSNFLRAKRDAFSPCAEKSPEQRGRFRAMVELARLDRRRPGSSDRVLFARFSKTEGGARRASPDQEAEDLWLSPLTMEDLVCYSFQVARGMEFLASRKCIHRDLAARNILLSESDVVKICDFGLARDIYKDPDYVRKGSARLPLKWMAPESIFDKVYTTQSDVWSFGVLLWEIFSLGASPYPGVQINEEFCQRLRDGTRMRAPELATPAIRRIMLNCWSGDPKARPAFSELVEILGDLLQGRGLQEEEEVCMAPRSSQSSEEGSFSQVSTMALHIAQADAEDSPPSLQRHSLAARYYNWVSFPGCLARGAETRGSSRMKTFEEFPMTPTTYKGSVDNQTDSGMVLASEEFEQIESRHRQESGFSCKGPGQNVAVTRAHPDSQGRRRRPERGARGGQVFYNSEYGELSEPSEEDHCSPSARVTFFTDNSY

[1] = cited from earlier work

Sequence of VEGFR-1 (Flt-1) (P17948 27-1338): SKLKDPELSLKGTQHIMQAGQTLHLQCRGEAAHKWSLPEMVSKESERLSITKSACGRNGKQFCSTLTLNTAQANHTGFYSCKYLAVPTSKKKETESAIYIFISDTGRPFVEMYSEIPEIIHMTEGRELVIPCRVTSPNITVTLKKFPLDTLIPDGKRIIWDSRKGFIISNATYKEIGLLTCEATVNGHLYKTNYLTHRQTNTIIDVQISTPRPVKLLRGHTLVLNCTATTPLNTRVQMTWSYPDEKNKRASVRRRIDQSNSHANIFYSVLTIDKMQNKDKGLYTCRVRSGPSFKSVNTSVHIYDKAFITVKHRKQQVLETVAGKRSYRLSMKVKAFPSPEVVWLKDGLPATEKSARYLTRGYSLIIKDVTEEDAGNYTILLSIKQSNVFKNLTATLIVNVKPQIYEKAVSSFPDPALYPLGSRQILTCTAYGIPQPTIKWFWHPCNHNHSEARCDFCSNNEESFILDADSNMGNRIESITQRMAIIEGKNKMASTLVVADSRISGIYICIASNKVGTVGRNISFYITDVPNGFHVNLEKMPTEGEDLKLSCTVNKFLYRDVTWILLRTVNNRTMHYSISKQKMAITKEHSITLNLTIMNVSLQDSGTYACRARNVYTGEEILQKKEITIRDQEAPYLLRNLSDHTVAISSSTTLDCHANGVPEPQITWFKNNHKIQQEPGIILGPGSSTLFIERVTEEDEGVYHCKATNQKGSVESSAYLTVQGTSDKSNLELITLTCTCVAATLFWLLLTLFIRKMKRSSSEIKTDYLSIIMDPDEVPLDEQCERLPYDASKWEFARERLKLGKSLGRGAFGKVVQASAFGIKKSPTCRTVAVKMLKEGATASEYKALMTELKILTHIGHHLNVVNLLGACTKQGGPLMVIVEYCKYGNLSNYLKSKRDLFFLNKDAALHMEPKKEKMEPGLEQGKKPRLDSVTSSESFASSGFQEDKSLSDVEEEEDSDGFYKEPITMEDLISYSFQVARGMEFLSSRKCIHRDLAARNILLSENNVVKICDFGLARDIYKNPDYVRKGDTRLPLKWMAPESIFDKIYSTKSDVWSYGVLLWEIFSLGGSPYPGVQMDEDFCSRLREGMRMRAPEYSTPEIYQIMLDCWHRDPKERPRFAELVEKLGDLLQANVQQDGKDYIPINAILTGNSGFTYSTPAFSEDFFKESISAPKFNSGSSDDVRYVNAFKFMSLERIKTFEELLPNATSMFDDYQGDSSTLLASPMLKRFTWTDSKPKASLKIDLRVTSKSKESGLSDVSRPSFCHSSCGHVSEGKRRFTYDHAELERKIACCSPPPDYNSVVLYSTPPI

IC50 (VEGFR-1 (Flt-1))	IC50 (VEGFR-2 KDR)	Enzymatic Activities IC50 VEGFR-3 (Flt-4) or VGFR3 FLT4 (VEGFR-3 (Flt-4))	Compound	Patients in whom dose reductions were required to manage toxicities ([1]; patients studied in RCC)	Serious (grade 3 or 4) adverse events, share of patients ([1]; sunitinib therapy, patients)
40 nM	2.5 nM	No Inhibition	Cc1[nH]c(/C=C2\C(=O)Nc3ccc(F)cc32)c(C)c1C(=O)N1CCOCCOCCOCC1 [Formula II]	–	–
–	–	–	CCN(CC)CCNC(=O)c1c(C)[nH]c(/C=C2\C(=O)Nc3ccc(F)cc32)c1C [Sunitinib, sunitinib]	50%	up to 10%
